What was measured:
Type in all cases: in vivo, human
[1] = system: ADHD subjects; assay: BNA pattern similarity from EEG data of ADHD subjects before and following treatment with MPH
Text: The BNA patterns shown in FIGS. 6A-D are associated subject-specific BNA patterns constructed from EEG data recorded from a particular ADHD subject. The black dots in FIGS. 6A-D show the locations of the EEG electrodes. The color codes in these BNA patterns are the same as defined above. The subject-specific BNA patterns shown in FIGS. 6A-B describe the association of the ADHD subject to a group of untreated ADHD subjects, and the BNA patterns shown in FIGS. 6C-D describe the association of the ADHD subject to a group of ADHD subjects all treated with methylphenidate (MPH). The subject-specific BNA patterns shown in FIGS. 6A and 6C are based on EEG data recorded from the ADHD subject before any treatment, and subject-specific BNA patterns shown in FIGS. 6B and 6D are based on EEG data recorded from the ADHD subject following a treatment with MPH.
The baseline annotated BNA pattern constructed from the group of untreated ADHD subjects, and the baseline annotated BNA pattern constructed from the same group of subjects, but following treatment with MPH are shown in FIGS. 6E and 6F, respectively.
A BNA pattern similarity was calculated for each of the subject-specific BNA patterns shown in FIGS. 6A-D. The calculated similarity corresponding to the BNA pattern of FIG. 6A is 0.73, the calculated similarity corresponding to the BNA pattern of FIG. 6B is 0.19, the calculated similarity corresponding to the BNA pattern of FIG. 6C is 0.56, and the calculated similarity corresponding to the BNA pattern of FIG. 6D is 0.6.
The BNA patterns shown in FIGS. 7A-D were constructed from EEG data recorded from a different ADHD subject, which was also treated with MPH according to the same protocol as described above with respect to the responder subject of FIGS. 6A-D. The black dots in FIGS. 7A-D show the locations of the EEG electrodes, and the color codes in these BNA patterns is the same as defined above. Thus, the subject-specific BNA patterns shown in FIGS. 7A-B describe the association of the ADHD subject to a group of untreated ADHD subjects, and the BNA patterns shown in FIGS. 7C-D describe the association of the ADHD subject to a group of ADHD subjects all treated with methylphenidate (MPH). The subject-specific BNA patterns shown in FIGS. 7A and 7C are based on EEG data recorded from the ADHD subject before any treatment, and subject-specific BNA patterns shown in FIGS. 7B and 7D are based on EEG data recorded from the ADHD subject following a treatment with MPH.
A BNA pattern similarity was calculated for each of the subject-specific BNA patterns shown in FIGS. 7A-D. The calculated similarity corresponding to the BNA pattern of FIG. 7A is 0, the calculated similarity corresponding to the BNA pattern of FIG. 7B is 0, the calculated similarity corresponding to the BNA pattern of FIG. 7C is 0.06, and the calculated similarity corresponding to the BNA pattern of FIG. 7D is 0.

[2] = system: healthy volunteer subjects; assay: BNA pattern analysis of EEG data during working memory test (encoding/retrieval), drug vs placebo; settings: for effect on central and frontal activation in group BNA pattern / effect on fronto-parietal part / connectivity of group BNA pattern: group BNA patterns (FIGS. 10C-D, 10G-H) vs placebo
[3] = system: healthy volunteer subjects; assay: BNA pattern analysis of EEG data during auditory oddball task, scopolamine vs placebo; settings: for BNA pattern similarity to placebo group baseline BNA pattern: following scopolamine, oddball task
Text: FIGS. 8A-D show associated subject-specific BNA patterns constructed from EEG data recorded from two healthy volunteer subjects. The black dots in FIGS. 8A-D show the locations of the EEG electrodes, and the color codes in these BNA patterns are the same as defined above. The subject-specific BNA patterns shown in FIGS. 8A-D describe the association of the subjects to a group of healthy subjects following treatment with a placebo drug and while performing an attention task related oddball task.
FIGS. 8A and 8C are subject-specific BNA patterns constructed from EEG data collected from a first subject (FIG. 8A) and a second subject (FIG. 8C) following treatment with a placebo, and FIGS. 8B and 8D are subject-specific BNA patterns constructed from EEG data collected from the first subject (FIG. 8B) and the second subject (FIG. 8D) following treatment with a scopolamine drug. Scopolamine is an anticholinergic drug with inhibitory effect on M2-cholinergic receptors of excited type. It has an inhibitory effect on the cerebral cortex, typically inducing slight-anesthetic effect.
All subjects were administered with Scopolamine 0.4 mg, and Saline serving as a placebo drug, on consecutive days, in a randomized order.
In the auditory oddball target detection test, the subjects were requested to respond to auditory target stimuli that occur infrequently and irregularly within a series of standard stimuli. The standard stimulus was in the form of a 1000 Hz tone, and the target stimulus was in the form of a 2000 Hz tone. The intervals between two successive stimuli (standard or target) were 1.5 seconds. Each subject was exposed to a series of stimuli, of which 80% were standard stimuli and 10% were target stimuli. The additional 10% were background sounds (referred to as “novel stimuli”).
All subjects underwent EEG recordings during the tests. ERPs were recorded using 64 Ag—AgCl active electrodes (ActiveTwo, Biosemi) attached to the scalp by located according to the 10-20 international system, and filled with a conducting gel (Signa, Parker).
Two group BNA patterns (one BNA pattern for the placebo group and one BNA pattern for the scopolamine group), and several subject-specific BNA patterns were constructed according to the teachings of the present embodiments as described in Example 1 above. The similarities between the subject-specific BNA pattern and the group BNA patterns were calculated as described in Example 1 above, except for the following provisions on data selection.
Two types of group BNA patterns were constructed in this example. A first type, referred to herein as a DIFF BNA pattern, described the activity that most differentiated between two groups or two conditions. In this type, data features that appeared in at least 11 subjects out of a maximum number of 15 subjects in one group, but a difference threshold (the number of subjects that had the pattern in one group minus the number of subjects that had the pattern in the other group) of 2 subjects, was used to construct the BNA pattern. […] The SI quantities for this type of BNA patterns were calculated as described in Example 1 above.

[4] = system: healthy volunteer subjects; assay: Clinical observation of behavioral endpoint following treatment with scopolamine
Method: A BNA pattern similarity was calculated for each of the subject-specific BNA patterns shown in FIGS. 8A-D. The calculated similarities are 0.937, 0.079, 1.0 and 0.94, respectively. It is recognized by the present inventors that these similarity values indicate that the responsivity to scopolamine is high for the first subject (FIGS. 8A and 8B) and low for the second subject (FIGS. 8C and 8D).

COC(=O)C(c1ccccc1)C1CCCCN1 (stereo not shown) [MPH, methylphenidate]
responsiveness of the subject to the treatment, as indicated by similarity values ([1]; ADHD subject of FIGS. 6A-D): responsive to the treatment
BNA pattern similarity to the baseline BNA pattern for the untreated ADHD group ([1]; ADHD subject of FIGS. 6A-D (FIG. 6B), following a single dose treatment with MPH, before treatment 0.73): 0.19
BNA pattern similarity to the baseline BNA pattern for the treated ADHD group ([1]; ADHD subject of FIGS. 6A-D (FIG. 6D), following a single dose treatment with MPH, before treatment 0.56): 0.6
responsiveness of the subject to the treatment, as indicated by similarity values ([1]; ADHD subject of FIGS. 7A-D): not responsive to the treatment
BNA pattern similarity to the group of untreated ADHD subjects ([1]; different ADHD subject of FIGS. 7A-D (FIG. 7B), following treatment with MPH, before treatment 0): 0
BNA pattern similarity to the group of ADHD subjects treated with MPH ([1]; different ADHD subject of FIGS. 7A-D (FIG. 7D), following treatment with MPH, before treatment 0.06): 0

CNC1(c2ccccc2Cl)CCCCC1=O (stereo not shown) [ketamine]
effect on central and frontal activation in group BNA pattern ([2]; working memory test): increased central and frontal activation
effect on fronto-parietal part / connectivity of group BNA pattern ([2]; working memory test): No significant change
effect on right lateralization in group BNA pattern ([2]; working memory test, group BNA patterns (FIGS. 10G-H) vs placebo): decreased right lateralization

CN1[C@@H]2C[C@@H](OC(=O)[C@H](CO)c3ccccc3)C[C@H]1[C@@H]1O[C@@H]12 [scopolamine]
pattern differentiation level ([2]; encoding placebo DIFF BNA pattern, placebo vs scopolamine group): 11
pattern differentiation level ([2]; encoding scopolamine DIFF BNA pattern, scopolamine vs placebo group): 10
pattern differentiation level ([2]; retrieval placebo DIFF BNA pattern, placebo vs scopolamine group): 13
pattern differentiation level ([2]; retrieval scopolamine DIFF BNA pattern, scopolamine vs placebo group): 14
number of scopolamine subjects fulfilling the encoding placebo DIFF BNA pattern ([2]; working memory test, encoding process (FIGS. 10A, 32-34), 13 in placebo group): Two
number of subjects in the scopolamine group showing the encoding scopolamine DIFF BNA pattern (group-subject value) ([2]; working memory test, encoding process (FIGS. 10C, 35A-B), three placebo subjects): 13 subjects
effect on central and frontal activation in group BNA pattern ([2]; working memory test): extensive compensatory central and frontal activation
effect on fronto-parietal part / connectivity of group BNA pattern ([2]; working memory test): low connectivity between frontal and parietal regions
number of scopolamine subjects fulfilling the retrieval placebo DIFF BNA pattern ([2]; working memory test, retrieval process (FIGS. 10B, 30A-C), 14 in placebo group): One
number of subjects in the scopolamine group showing the retrieval scopolamine DIFF BNA pattern (group-subject value) ([2]; working memory test, retrieval process (FIGS. 10D, 31A-E), one placebo subject): 15 subjects
BNA pattern similarity to placebo group baseline BNA pattern ([3]; first healthy subject (FIG. 8B), after placebo 0.937): 0.079
responsivity to scopolamine, as indicated by similarity values ([3]; first subject (FIGS. 8A and 8B)): high
number of scopolamine subjects fulfilling the placebo pattern ([3]; oddball test, detection of novel stimuli, Delta frequency pattern (FIGS. 29A-D), 14 in placebo group): 0 subjects
number of subjects in the scopolamine group showing the scopolamine pattern (group-subject value) ([3]; oddball test, detection of target stimuli, Beta (12-18 Hz) pattern (FIGS. 28A-C), Scopolamine 0.4 mg, 15 subjects, 1 placebo subject): 12 subjects
number of scopolamine subjects fulfilling the placebo pattern ([3]; oddball test, detection of target stimuli, Delta frequency pattern (FIGS. 27A-D), Scopolamine 0.4 mg, 15 subjects, 12 in placebo group): 4 subjects
pattern differentiation level ([3]; placebo pattern, detection of novel stimuli (FIGS. 29A-D), placebo vs scopolamine group): 14
pattern differentiation level ([3]; placebo pattern, detection of target stimuli (FIGS. 27A-D), placebo vs scopolamine group): 8
pattern differentiation level ([3]; scopolamine pattern, detection of target stimuli (FIGS. 28A-C), scopolamine vs placebo group): 11
BNA pattern similarity to placebo group baseline BNA pattern ([3]; second healthy subject (FIG. 8D), after placebo 1.0): 0.94
responsivity to scopolamine, as indicated by similarity values ([3]; second subject (FIGS. 8C and 8D)): low
decrease in behavioral endpoint ([4]; first subject): 70%
change in behavioral endpoint ([4]; second subject): no change

From patent US9895077B2, “Method for diagnosing a brain related disorder using brain network activity patterns” (Elminda Ltd., priority 2010, dated 2018)
